Results published in patent publication US20220153746A1, “NITROGEN OXIDE-DONATING PDE-5 AND/OR PDE-6 INHIBITOR COMPOUNDS, AND USES THEREOF” (ILDONG PHARMACEUTICAL CO., LTD., priority 2020, published 2022).

Experiments:
[1] = molecular target: human PDE-6C (Homo sapiens, UniProt P51160); assay: Human PDE-6C inhibition assay (fluorescence polarization, FAM-cGMP); type: biochemical; conditions: read-out: IC50 (μM) PDE6C
[2] = molecular target: human PDE-5A1 (Homo sapiens, UniProt O76074); assay: Human PDE-5A1 inhibition assay (fluorescence polarization, FAM-cGMP); type: biochemical; conditions: read-out: IC50 (μM) PDE5A1
[3] = Metabolic stability in human liver microsomes; type: in vitro ADME; conditions: 37° C., 0-60 minutes
Procedure: This example illustrates the metabolic stability of selected compounds in human liver microsomes samples.
Both test and control compound solutions were prepared by diluting 5 μL of the respective stock solutions (10 mM in DMSO) containing either the test or control compound with 495 μL of acetonitrile (ACN) to give intermediate solutions with concentrations of 100 μM (99% ACN).
β-Nicotinamide adenine dinucleotide phosphate tetrasodium salt (NADPH.4Na) was purchased from BONTAC (cat. No. BT04). The NADPH working solution (10 unit/mL) was prepared by combining the appropriate amount of NADPH powder and a MgCl2 solution (10 mM) to give final concentration in the reaction system of 1 unit/mL.
The appropriate concentrations of the microsome working solutions were prepared in 100 mM potassium phosphate buffer.
Cold (4° C.) acetonitrile solution containing 200 ng/mL tolbutamide and 200 ng/mL labetalol (internal standard) was used as the stop solution.
Liver microsomes solution was diluted to 0.56 mg/mL in 100 mM phosphate buffer, and 445 μL of this solution was transferred into pre-warmed (10 minutes) “incubation” plates T60 and NCF60; the “incubation” plates T60 and NCF60 were pre-warmed for 10 minutes at 37° C. with constant shaking.
54 μL of the liver microsome solutions was transferred to the blank plate, followed by addition of 6 μL of the NAPDH cofactor solution and 180 μL of the quenching solution to the same blank plate.
5 μL of the compound working solution (100 μM concentration) was next added to into the “incubation” plates (T60 and NCF60) containing microsomes and mixed 3 times thoroughly. For the NCF60 plate, 50 μL of the buffer solution was added, mixed 3 times thoroughly, and incubated at 37° C. for 60 minutes under constant shaking.
In the “Quenching” plate at T0 (T=0 min), 180 μL of quenching solution and 6 μL of the NAPDH cofactor solution were added, and the resulting plate was chilled to prevent evaporation.
In the T60 plate, after it was thoroughly mixed, 54 μL of the mixture was immediately transferred to the “quenching” plate for the 0-minute time point, followed by addition of 44 μL of NAPDH cofactor solution to the incubation plate (T60). The resulting mixture was then incubated at 37° C. for 60 minutes under constant shaking. At time points of 5, 10, 20, 30 and 60 minutes, 180 μL of the quenching solution was added to the “quenching” plates, followed by serial transfer of 60 μL of the mixture (per time point) from the T60 plate to the “Quenching” plates.
For the NCF60 plates, 60 μL of the sample solution was transferred from the NCF60 incubation plate to the “Quenching” plate containing quenching solution at T=60 min time point. […]

[4] = system: human plasma proteins; assay: Plasma protein binding assay (equilibrium dialysis); type: in vitro ADME; conditions: 2 μM, dialysis 4 hours at 37° C.
Procedure: (§1) The dialysis device used in this example is a 96-well equilibrium dialysis plate (Cat #1006, HT Dialysis LLC, Gales Gerry, CT), and HTD 96 a/b dialysis membrane strips (Cat #1101, MWCO 12-14 kDa, HT Dialysis LLC). The dialysis device was assembled following the manufacturer's instructions.
(§2) The dialysis membrane strips were soaked in ultra-pure water at room temperature for approximately 1 hour. Each membrane strip containing 2 membranes was separated and soaked in 20:80 ethanol/water (v/v) for approximately 20 minutes, after which they were ready for used or were stored in the solution at 2-8° C. for up to a month. Prior to experiment, the membrane was rinsed and soaked for 20 minutes in ultra-pure water.
(§3) On the day of the experiment, the plasma was thawed by running under col tap water and centrifuged at 3220 rpm for 5 minutes to remove any clos. The pH value of the resulting plasma was checked. Only plasma with pH value with 7.0-8.0 could be used.
(§4) Both test and control compounds were dissolved in DMSO to achieve 10 mM stock solutions. Working solutions (400 μM) if test and control compounds were prepared by diluting 10μ of stock solutions with 240 μL of DMSO. Loading matrix solutions (2 μM) of both test and control compounds were prepared by diluting 5 μL of working solutions with 995 μL of blank matrix.
(§5) To prepare the loading matrix containing the test compound or control compounds, aliquots of either test compound working solutions or control compound working solution were spiked into blank matrix to achieve final test concentrations. The concentration of organic solvent in the final solutions were no more than 1% (normally 0.5%). The samples were mixture thoroughly before being used.
(§6) To prepare the time zero (T0) samples to be used for recovery determinations. 50 μL aliquots of loading matrix solution were transferred in triplicate to the sample collection plate. The samples were immediately matched with opposite blank buffer to obtain a final volume of 100 μL of 1:1 matrix/dialysis buffer (v/v) in each well. 500 μL of stop solution were added to these T0 samples. They were then stored at 2-8° C. pending further processes along with other post-dialysis samples.
(§7) To load the dialysis device, an aliquot of 150 μL of the loading matrix was transferred to the donor side of each dialysis well in triplicate, and 150 μL of the dialysis buffer was loaded to the received side of the well. The dialysis was placed in humidified incubator at 37° C. with 5% CO2 on a shaking platform that rated slowly (about 100 rpm) for 4 hours.
(§8) At the end of the dialysis, aliquots of 50 μL of samples were taken from both the buffer side and the matrix side of the dialysis deice. These samples were transferred into new 96-well plates (the sample collection plates). Each sample was mixed with an equal volume of opposite blank matrix (buffer or matrix) to reach a final volume of 100 μL of 1:1 matrix/dialysis buffer (v/v) in each well. All samples were further processed by adding 500 μL of stop solution containing internal standards. The mixture was vortexed and centrifuged at 4000 rpm for about 20 minutes. An aliquot of 100 μL of supernatant of all the samples were then removed for LC-MS/MS analysis.
(§9) The single blank samples were prepared by transferring 50 μL of blank matrix to a 96 well plate and adding 50 μL of blank PBS buffer to each well. The blank plasma must match the species of plasma used in the plasma side of the well. Then the matrix-matched samples were further processed by adding 500 μL of stop solution containing internal standards, following the same sample processing method as the dialysis samples.

[5] = as above; type: in vitro ADME; conditions: human plasma, dialysis 4 hours at 37° C.
Procedure: as §1, §2, §3, §4, §5, §6, §7, §8, §9

human PDE-6C, sequence (P51160 whole entry): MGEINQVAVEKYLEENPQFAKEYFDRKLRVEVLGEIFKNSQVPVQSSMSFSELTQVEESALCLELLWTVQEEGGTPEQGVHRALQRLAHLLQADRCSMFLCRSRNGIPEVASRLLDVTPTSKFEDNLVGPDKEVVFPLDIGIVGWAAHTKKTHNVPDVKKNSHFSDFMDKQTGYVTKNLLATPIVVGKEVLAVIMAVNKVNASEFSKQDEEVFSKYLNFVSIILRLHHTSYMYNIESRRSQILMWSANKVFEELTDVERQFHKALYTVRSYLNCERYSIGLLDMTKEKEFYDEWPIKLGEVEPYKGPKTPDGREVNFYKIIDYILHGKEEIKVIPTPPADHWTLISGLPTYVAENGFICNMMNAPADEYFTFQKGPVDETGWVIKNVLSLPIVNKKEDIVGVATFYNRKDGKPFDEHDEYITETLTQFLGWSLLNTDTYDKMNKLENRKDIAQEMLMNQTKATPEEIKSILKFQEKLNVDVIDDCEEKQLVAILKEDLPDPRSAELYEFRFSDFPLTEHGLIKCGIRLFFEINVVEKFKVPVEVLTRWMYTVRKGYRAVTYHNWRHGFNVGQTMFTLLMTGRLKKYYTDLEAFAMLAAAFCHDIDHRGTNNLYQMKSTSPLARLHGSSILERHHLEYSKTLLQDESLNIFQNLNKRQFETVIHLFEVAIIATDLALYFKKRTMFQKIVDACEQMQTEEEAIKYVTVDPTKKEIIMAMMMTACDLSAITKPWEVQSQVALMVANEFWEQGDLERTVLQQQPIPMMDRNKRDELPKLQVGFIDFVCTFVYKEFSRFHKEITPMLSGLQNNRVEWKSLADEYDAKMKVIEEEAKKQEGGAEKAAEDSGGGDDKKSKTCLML

Row | Structure (SMILES) | IC50 [1] | IC50 [2] | CLint scaled at 1 µM [3] | % Bound [4] | fraction unbound at 4 h, 2 µM [5]
1 | CCCc1nn(C)c2c(=O)[nH]c(-c3cc(S(=O)(=O)N4CC(N5CC(CO)C5)C4)ccc3OCC)nc12 [Compound 32, 5-(2-ethoxy-5-((3-(hydroxymethyl)-[1,3′-biazetidin]-1′-yl)sulfonyl)phenyl)-1-methyl-3-propyl-1,6-dihydro-7H-pyrazolo[4,3-d]pyrimidin-7-one] | 0.01 to 0.1 µM | < 0.01 µM | – | – | –
2 | CCCc1nn(C)c2c(=O)[nH]c(-c3cc(S(=O)(=O)N4CC(CN5CC(CCO)C5)C4)ccc3OCC)nc12 [Compound 29, 5-(2-ethoxy-5-((3-((3-(2-hydroxyethyl)azetidin-1-yl)methyl)azetidin-1-yl)sulfonyl)phenyl)-1-methyl-3-propyl-1,6-dihydro-7H-pyrazolo[4,3-d]pyrimidin-7-one] | 0.01 to 0.1 µM | 0.01 to 0.1 µM | – | – | –
3 | CCCc1nn(C)c2c(=O)[nH]c(-c3cc(S(=O)(=O)NC4CN(CCCO)C4)ccc3OCC)nc12 [Compound 7, 4-ethoxy-N-(1-(3-hydroxypropyl)azetidin-3-yl)-3-(1-methyl-7-oxo-3-propyl-6,7-dihydro-1H-pyrazolo[4,3-d]pyrimidin-5-yl)benzenesulfonamide] | 0.01 to 0.1 µM | 0.01 to 0.1 µM | – | – | –
4 | CCCc1nn(C)c2c(=O)[nH]c(-c3cc(S(=O)(=O)N4CC(CO[N+](=O)[O-])C4)ccc3OCC)nc12 [Compound 16, (1-((4-ethoxy-3-(1-methyl-7-oxo-3-propyl-6,7-dihydro-1H-pyrazolo[4,3-d]pyrimidin-5-yl)phenyl)sulfonyl)azetidin-3-yl)methyl nitrate] | 0.01 to 0.1 µM | < 0.01 µM | – | – | –
5 | CCCc1nn(C)c2c(=O)[nH]c(-c3cc(S(=O)(=O)N4CC(CN5CC(CO)C5)C4)ccc3OCC)nc12 [Compound 28, 5-(2-ethoxy-5-((3-((3-(hydroxymethyl)azetidin-1-yl)methyl)azetidin-1-yl)sulfonyl)phenyl)-1-methyl-3-propyl-1,6-dihydro-7H-pyrazolo[4,3-d] pyrimidin-7-one] | 0.01 to 0.1 µM | 0.01 to 0.1 µM | – | – | –
6 | CCCc1nn(C)c2c(=O)[nH]c(-c3cc(S(=O)(=O)N4CC(OCCCO)C4)ccc3OCC)nc12 [Compound 26, 5-(2-ethoxy-5-((3-(3-hydroxypropoxy)azetidin-1-yl)sulfonyl)phenyl)-1-methyl-3-propyl-1,6-dihydro-7H-pyrazolo[4,3-d]pyrimidin-7-one] | 0.01 to 0.1 µM | 0.01 to 0.1 µM | – | – | –
7 | CCCc1nn(C)c2c(=O)[nH]c(-c3cc(S(=O)(=O)N4CC(N(C)CCOC(=O)CCCCCO[N+](=O)[O-])C4)ccc3OCC)nc12 [Compound 67, 2-((1-((4-ethoxy-3-(1-methyl-7-oxo-3-propyl-6,7-dihydro-1H-pyrazolo[4,3-d]pyrimidin-5-yl)phenyl)sulfonyl)azetidin-3-yl)(methyl)amino)ethyl 6-(nitrooxy)hexanoate] | < 0.01 µM | < 0.01 µM | – | – | –
8 | CCCc1nn(C)c2c(=O)[nH]c(-c3cc(S(=O)(=O)N4CC(NCCCO)C4)ccc3OCC)nc12 [Compound 10, 5-(2-ethoxy-5-((3-((3-hydroxypropyl)amino)azetidin-1-yl)sulfonyl)phenyl)-1-methy-3-propyl-1,6-dihydro-7H-pyrazolo[4,3-d]pyrimidin-7-one] | – | – | 55 mL/min/kg | 86.19% | 0.138
9 | CCCc1nn(C)c2c(=O)[nH]c(-c3cc(S(=O)(=O)N4CC(OCCCCO[N+](=O)[O-])C4)ccc3OCC)nc12 [Compound 36, 4-((1-((4-ethoxy-3-(1-methyl-7-oxo-3-propyl-6,7-dihydro-1H-pyrazolo[4,3-d]pyrimidin-5-yl)phenyl)sulfonyl)azetidin-3-yl)oxy)butyl nitrate] | 0.01 to 0.1 µM | 0.01 to 0.1 µM | – | – | –
10 | CCCc1nn(C)c2c(=O)[nH]c(-c3cc(S(=O)(=O)N4CC(N5CC(CO[N+](=O)[O-])C5)C4)ccc3OCC)nc12 [Compound 40, (1′-((4-ethoxy-3-(1-methyl-7-oxo-3-propyl-6,7-dihydro-1H-pyrazolo[4,3-d]pyrimidin-5-yl)phenyl)sulfonyl)-[1,3′-biazetidin]-3-yl)methyl nitrate] | < 0.01 µM | 0.01 to 0.1 µM | – | – | –
11 | CCCc1nn(C)c2c(=O)[nH]c(-c3cc(S(=O)(=O)NC4CN(CCCCO)C4)ccc3OCC)nc12 [Compound 8, 4-ethoxy-N-(1-(4-hydroxybutyl)azetidin-3-yl)-3-(1-methyl-7-oxo-3-propyl-6,7-dihydro-1H-pyrazolo[4,3-d]pyrimidin-5-yl)benzenesulfonamide] | 0.01 to 0.1 µM | 0.01 to 0.1 µM | – | – | –
12 | CCCc1nn(C)c2c(=O)[nH]c(-c3cc(S(=O)(=O)NC4CN(CCCO[N+](=O)[O-])C4)ccc3OCC)nc12 [Compound 20, 3-(3-((4-ethoxy-3-(1-methyl-7-oxo-3-propyl-6,7-dihydro-1H-pyrazolo[4,3-d]pyrimidin-5-yl)phenyl)sulfonamido)azetidin-1-yl)propyl nitrate] | < 0.01 µM | 0.01 to 0.1 µM | – | – | –
13 | CCCc1nn(C)c2c(=O)[nH]c(-c3cc(S(=O)(=O)N4CC(N(CCCO)CCCO)C4)ccc3OCC)nc12 [Compound 30, 5-(5-((3-(bis(3-hydroxypropyl)amino)azetidin-1-yl)sulfonyl)-2-ethoxyphenyl)-1-methyl-3-propyl-1,6-dihydro-7H-pyrazolo[4,3-d]pyrimidin-7-one] | < 0.01 µM | < 0.01 µM | – | – | –
